One experiment has as its target CDK5/p25 (Homo sapiens, UniProt Q00535). Briefly: CDK5 mobility shift assay (enzymatic activity of CDK5/p25). It counts as biochemical. Conditions: for IC50: 0.154 nM CDK5/p25, FL peptide 29, 60 min at room temperature, read-out: CDK5 IC50; for CDK5/CDK2 specificity: fold more active against CDK5 than CDK2. The procedure, abridged: (§1)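 Carna CDK5/p25 (0.154 nM) or CDK2/CycA2 (1.25 nM) was preincubated 30 min with compound, ATP ([…] for CDK5; 37 μM for CDK2) and 10 mM MgCl2 in HEPES pH 7.5. The reaction was started with 1.5 μM FL peptide (29 for CDK5, 18 for CDK2) and run 60 min (CDK5) or 120 min (CDK2) at room temperature. Product was read by mobility shift, with IC50 from a 4-parameter fit.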

The target of another experiment is CDK2/CycA2 (Homo sapiens, UniProt P24941). Briefly: CDK2 mobility shift assay (enzymatic activity of CDK2/CycA2). It counts as biochemical. To be noted: 1.25 nM CDK2/CycA2, 37 μM ATP, FL Peptide 18, 120 min at room temperature; read-out: CDK2 IC50. In short, it runs like this: as §1

CDK5/p25, sequence (Q00535 whole entry): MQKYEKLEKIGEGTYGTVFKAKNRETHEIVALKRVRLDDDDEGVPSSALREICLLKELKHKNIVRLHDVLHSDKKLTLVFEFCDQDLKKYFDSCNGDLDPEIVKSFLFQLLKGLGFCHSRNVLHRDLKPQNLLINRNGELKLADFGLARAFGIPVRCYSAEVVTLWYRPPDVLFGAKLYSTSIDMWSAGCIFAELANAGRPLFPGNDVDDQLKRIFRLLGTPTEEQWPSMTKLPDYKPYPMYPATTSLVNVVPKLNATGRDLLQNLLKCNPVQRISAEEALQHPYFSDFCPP
CDK5/p25, sequence (Q15078 99-307 partner limits assumed): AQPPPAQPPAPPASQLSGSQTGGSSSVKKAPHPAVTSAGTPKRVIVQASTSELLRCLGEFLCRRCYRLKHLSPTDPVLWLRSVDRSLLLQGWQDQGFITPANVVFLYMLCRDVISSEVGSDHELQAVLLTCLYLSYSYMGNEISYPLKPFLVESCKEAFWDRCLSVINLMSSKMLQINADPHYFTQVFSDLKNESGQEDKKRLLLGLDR

What is called IC50 is the concentration that gives 50% inhibition. Take `CN1CCC(/C(=N/O)c2ccc3cnc(Nc4ccc(-n5cccn5)cc4F)cc3n2)CC1` [Compound 381]: on CDK5/p25, the IC50 fell in the range of 10 to 100 nM and the CDK5/CDK2 specificity result is listed as “+ (10-fold or less more active against CDK5 than CDK2)”. Moreover, the IC50 on CDK2/CycA2 fell in the range of 100 to 1000 nM.

In the case of `COc1ccc(-c2ccc(Nc3cc4nc(C(C)C5CCN(C)CC5)ccc4cn3)c(F)c2)cc1` (stereo not drawn) [Compound 322], the IC50 was under 10 nM on CDK5/p25 and 100 to 1000 nM at CDK2/CycA2. The CDK5/CDK2 specificity result at CDK5/p25 is “+++ (greater than 100-fold more active against CDK5 than CDK2)”.

As to `CN1CCC(S(=O)(=O)c2ccc3cnc(Nc4cccc(C5CC5)c4)cc3n2)CC1` [Compound 274], on CDK5/p25, the IC50 was under 10 nM and the CDK5/CDK2 specificity result was “+++ (greater than 100-fold more active against CDK5 than CDK2)”. Moreover, on CDK2/CycA2, the IC50 fell in the range of 10 to 100 nM.

`COC(c1ccc2cnc(Nc3ccc(-n4cccn4)cc3F)cc2n1)C1CCN(C)CC1` (single isomer, unassigned) [Compound 387, N-[2-fluoro-4-(pyrazol-1-yl)phenyl]-2-[methoxy(1-methylpiperidin-4-yl)methyl]-1,6-naphthyridin-7-amine]: at CDK5/p25, the IC50 lay within 100 to 1000 nM; the CDK5/CDK2 specificity entry is “++ (greater than 10-fold and less than or equal to 100-fold more active against CDK5 than CDK2)”. In addition, the IC50 on CDK2/CycA2 is over 1000 nM.

For `CN1CCC(C(O)c2ccc3cnc(Nc4ccc(-n5ccc(CO)n5)cc4F)cc3n2)CC1` (single isomer, unassigned) [Compound 247, [7-([2-fluoro-4-[3-(hydroxymethyl)pyrazol-1-yl]phenyl]amino)-1,6-naphthyridin-2-yl](1-methylpiperidin-4-yl)methanol], the IC50 at CDK5/p25 was 10 to 100 nM; on CDK2/CycA2, over 1000 nM. The CDK5/CDK2 specificity result on CDK5/p25 was “++ (greater than 10-fold and less than or equal to 100-fold more active against CDK5 than CDK2)”.

For `COc1cccc(-c2ccc(Nc3cc4nc(S(=O)(=O)C5CCN(CC6COC6)CC5)ccc4cn3)c(F)c2)n1` [Compound 336], at CDK5/p25, the IC50 was under 10 nM and the CDK5/CDK2 specificity result is “+++ (greater than 100-fold more active against CDK5 than CDK2)”. Further, on CDK2/CycA2, the IC50 lay within 100 to 1000 nM.

Take `CN1CCC(C(O)(c2ccc3cnc(Nc4ccc(-n5cccn5)cc4F)cc3n2)C(F)(F)F)CC1` (single isomer, unassigned) [Compound 349, 2,2,2-trifluoro-1-(7-((2-fluoro-4-(1H-pyrazol-1-yl)phenyl)amino)-1,6-naphthyridin-2-yl)-1-(1-methylpiperidin-4-yl)ethan-1-ol]: on CDK5/p25, the IC50 was under 10 nM; the CDK5/CDK2 specificity entry is “++ (greater than 10-fold and less than or equal to 100-fold more active against CDK5 than CDK2)”. Also, the half-inhibitory concentration (IC50) on CDK2/CycA2 is 10 to 100 nM.

Regarding `CN1CCC(S(=O)(=O)c2ccc3cnc(Nc4cccc(N5CCCC5=O)c4)cc3n2)CC1` [Compound 281], the IC50 at CDK5/p25 was under 10 nM; at CDK2/CycA2 it was 100 to 1000 nM. Besides, the CDK5/CDK2 specificity entry at CDK5/p25 is “++ (greater than 10-fold and less than or equal to 100-fold more active against CDK5 than CDK2)”.

Turning to `OCCN1CCC(C(O)c2ccc3cnc(Nc4ccc(-n5ccc(CO)n5)cc4F)cc3n2)CC1` (single isomer, unassigned) [Compound 252, 2-(4-[[7-([2-fluoro-4-[3-(hydroxymethyl)pyrazol-1-yl]phenyl]amino)-1,6-naphthyridin-2-yl](hydroxy)methyl]piperidin-1-yl)ethanol], on CDK5/p25, the half-inhibitory concentration (IC50) is under 10 nM and the CDK5/CDK2 specificity entry was “+++ (greater than 100-fold more active against CDK5 than CDK2)”. The IC50 at CDK2/CycA2 was in the range of 100 to 1000 nM.

Consider `O=S(=O)(Cc1ccc2cnc(Nc3ccc(-n4ccc(CO)n4)cc3F)cc2n1)C1CCNCC1` [Compound 207, [1-[3-fluoro-4-([2-[(piperidine-4-sulfonyl)methyl]-1,6-naphthyridin-7-yl]amino)phenyl]pyrazol-3-yl]methanol], for which the values for the concentration for half-maximal inhibition (IC50) at CDK5/p25 and at CDK2/CycA2 were 100 to 1000 nM and over 1000 nM, respectively. The CDK5/CDK2 specificity result on CDK5/p25 is listed as “+ (10-fold or less more active against CDK5 than CDK2)”.

Turning to `CN1CCC(S(=O)(=O)c2ccc3cnc(Nc4ccc(S(C)(=O)=O)cc4)cc3n2)CC1` [Compound 271], at CDK5/p25, the IC50 is under 10 nM and the CDK5/CDK2 specificity result was “+ (10-fold or less more active against CDK5 than CDK2)”. For the same compound, the IC50 at CDK2/CycA2 fell in the range of 10 to 100 nM.

On to `CN1CCC(S(=O)(=O)c2ccc3cnc(Nc4ccc5c(c4)COC5)cc3n2)CC1` [Compound 282], for which, on CDK5/p25, the IC50 is under 10 nM; the CDK5/CDK2 specificity entry was “++ (greater than 10-fold and less than or equal to 100-fold more active against CDK5 than CDK2)”. The half-maximal inhibitory concentration (IC50) on CDK2/CycA2 is 10 to 100 nM.

For `CN1CCC(S(=O)(=O)c2ccc3cnc(Nc4ccc(N5CCOC5=O)cc4)cc3n2)CC1` [Compound 307], the IC50 at CDK5/p25 was under 10 nM; at CDK2/CycA2, 10 to 100 nM. Also, on CDK5/p25, the CDK5/CDK2 specificity result was “++ (greater than 10-fold and less than or equal to 100-fold more active against CDK5 than CDK2)”.

On to `Fc1cc(-n2cccn2)ccc1Nc1cc2nc(SC3CCNCC3)ccc2cn1` [Compound 107, N-[2-fluoro-4-(pyrazol-1-yl)phenyl]-2-(piperidin-4-ylsulfanyl)-1,6-naphthyridin-7-amine], for which the IC50 at CDK5/p25 was under 10 nM; on CDK2/CycA2, 10 to 100 nM. Moreover, the CDK5/CDK2 specificity entry on CDK5/p25 is “++ (greater than 10-fold and less than or equal to 100-fold more active against CDK5 than CDK2)”.

As for `CN1CCC(S(=O)(=O)c2ccc3cnc(Nc4ccc(N5CCC(O)CC5)cc4)cc3n2)CC1` [Compound 304], on CDK5/p25, the IC50 is under 10 nM; the CDK5/CDK2 specificity entry is “++ (greater than 10-fold and less than or equal to 100-fold more active against CDK5 than CDK2)”. Moreover, the IC50 at CDK2/CycA2 lay in the range of 100 to 1000 nM.

As to `CCN1CCC(N(CC(=O)O)c2ccc3cnc(Nc4ccc(-n5ccc(CO)n5)cc4F)cc3n2)CC1` [Compound 144, [(1-ethylpiperidin-4-yl)[7-([2-fluoro-4-[3-(hydroxymethyl)pyrazol-1-yl]phenyl]amino)-1,6-naphthyridin-2-yl]amino]acetic acid], on CDK5/p25, the IC50 was under 10 nM and the CDK5/CDK2 specificity result was “+++ (greater than 100-fold more active against CDK5 than CDK2)”. Moreover, the 50% inhibitory concentration (IC50) on CDK2/CycA2 is 100 to 1000 nM.

Consider `OCCN1CCC(C(O)c2ccc3cnc(Nc4ccc(-n5ccc(CO)n5)cc4F)cc3n2)CC1` (single isomer, unassigned) [Compound 255, 2-(4-[[7-([2-fluoro-4-[3-(hydroxymethyl)pyrazol-1-yl]phenyl]amino)-1,6-naphthyridin-2-yl](hydroxy)methyl]piperidin-1-yl)ethanol], for which, at CDK5/p25, the IC50 is 100 to 1000 nM; the CDK5/CDK2 specificity result was “++ (greater than 10-fold and less than or equal to 100-fold more active against CDK5 than CDK2)”. Further, at CDK2/CycA2, the 50% inhibitory concentration (IC50) was over 1000 nM.

As to `CC(c1ccc2cnc(Nc3ccc(-n4ccc(C(=O)O)n4)cc3F)cc2n1)C1CCN(C)CC1` (stereo not drawn) [Compound 324], at CDK5/p25, the 50% inhibitory concentration (IC50) is 10 to 100 nM and the CDK5/CDK2 specificity entry is recorded as “+++ (greater than 100-fold more active against CDK5 than CDK2)”. Also, at CDK2/CycA2, the IC50 was over 1000 nM.

Turning to `O=S(=O)(c1ccc2cnc(Nc3ccc(-c4cccnc4)cc3F)cc2n1)C1CCN(CC2COC2)CC1` [Compound 323], on CDK5/p25, the IC50 is under 10 nM and the CDK5/CDK2 specificity result is given as “+++ (greater than 100-fold more active against CDK5 than CDK2)”. Moreover, on CDK2/CycA2, the IC50 fell in the range of 100 to 1000 nM.

As for `CCc1ccc(F)c(Nc2cc3nc(S(=O)(=O)C4CCN(C)CC4)ccc3cn2)c1` [Compound 379], the IC50 is under 10 nM at CDK5/p25 and 100 to 1000 nM at CDK2/CycA2. The CDK5/CDK2 specificity entry on CDK5/p25 was “+++ (greater than 100-fold more active against CDK5 than CDK2)”.

With `CC(c1ccc2cnc(Nc3ccc(-c4cccc(C(N)=O)c4)cc3F)cc2n1)C1CCN(C)CC1` (stereo not drawn) [Compound 410, 3′-fluoro-4′-([2-[1-(1-methylpiperidin-4-yl)ethyl]-1,6-naphthyridin-7-yl]amino)-[1,1′-biphenyl]-3-carboxamide], the IC50 on CDK5/p25 is under 10 nM; at CDK2/CycA2, 100 to 1000 nM. Moreover, the CDK5/CDK2 specificity result on CDK5/p25 was “+++ (greater than 100-fold more active against CDK5 than CDK2)”.

For the compound `CN1CCC(S(=O)(=O)c2ccc3cnc(Nc4cccc(C#CC(C)(C)O)c4)cc3n2)CC1` [Compound 256], the IC50 was under 10 nM at CDK5/p25 and 10 to 100 nM on CDK2/CycA2. The CDK5/CDK2 specificity entry at CDK5/p25 is “+++ (greater than 100-fold more active against CDK5 than CDK2)”.

For `NC(c1ccc2cnc(Nc3ccc(-n4cccn4)cc3F)cc2n1)C1CCNCC1` (stereo not drawn) [Compound 165, 2-[amino(piperidin-4-yl)methyl]-N-[2-fluoro-4-(pyrazol-1-yl)phenyl]-1,6-naphthyridin-7-amine], the IC50 at CDK5/p25 lay in the range of 10 to 100 nM; at CDK2/CycA2 it was 100 to 1000 nM. The CDK5/CDK2 specificity entry at CDK5/p25 was “++ (greater than 10-fold and less than or equal to 100-fold more active against CDK5 than CDK2)”.

With `CN1CCC(S(=O)(=O)c2ccc3cnc(Nc4ccc(S(=O)(=O)N(C)C)cn4)cc3n2)CC1` [Compound 257], the IC50 on CDK5/p25 and at CDK2/CycA2 was 10 to 100 nM in each case. Besides, on CDK5/p25, the CDK5/CDK2 specificity result is “+ (10-fold or less more active against CDK5 than CDK2)”.

For `N#CCN(c1ccc2cnc(Nc3ccc(-n4ccc(CO)n4)cc3F)cc2n1)C1CCNCC1` [Compound 162, 2-[[7-([2-fluoro-4-[3-(hydroxymethyl)pyrazol-1-yl]phenyl]amino)-1,6-naphthyridin-2-yl](piperidin-4-yl)amino]acetonitrile], the IC50 on CDK5/p25 is 100 to 1000 nM; at CDK2/CycA2 it was over 1000 nM. Further, the CDK5/CDK2 specificity result on CDK5/p25 was “++ (greater than 10-fold and less than or equal to 100-fold more active against CDK5 than CDK2)”.

For the origin of these results see US20220389009A1, “SUBSTITUTED 1,6-NAPHTHYRIDINE INHIBITORS OF CDK5” (Goldfinch Bio, Inc., priority 2019, published 2022).
